Columns and labels:
[1] = test system: Antibody B binding to protein A; assay: Binding of Antibody B to protein A after UV-B exposure of the formulation; details: 20 mM additive; pH 6.90 phosphate buffer; 0-24 hours UV-B
Procedure: (§1) For the examples below involving exposure to UVB radiation, each sample was exposed to UVB light (λ≈302 nm) for varying times, using a UVP 8W model UVLMS-38 lamp at 4° C. The formulations were then analyzed using size exclusion chromatography high pressure liquid chromatography (SEC-HPLC). Aggregation (measured via SEC-HPLC analysis) and binding (measured using CM5 gold sensor chips) were measured to determine the effect of the antioxidant on aggregation and bioactivity of the therapeutic protein.
The binding activity of therapeutic protein to a ligand (e.g. to an antibody or binding partner, or, in cases where the therapeutic was an antibody, binding activity to the specific target antigen or to protein A) was determined as follows. […] The therapeutic protein-binding ligand of interest was injected until the desired immobilization level was achieved (above 5000 response units). Three different therapeutic protein-binding ligands were measured—Antibody A's target antigen, Protein A, and D11 (an antibody that binds to erythropoietin). […] The remaining activated groups were blocked with 1.0 M ethanolamine-HCl, pH 8.5.
A standard curve was prepared by using native forms of the therapeutic protein of interest. Native forms of the therapeutic protein were diluted in HBS-EP buffer (pH 7.4) to concentrations between 1 and 5 μg/mL, and then injected on the column, prepared as described above to obtain a standard curve. At the end of each sample run, regeneration buffer was used to wash away any bound therapeutic protein in preparation for subsequent injections.
Various UV-stressed antibody formulations were also diluted in HBS-EP buffer (pH 7.4) to a concentration within the standard curve region, and injected to quantitate the loss of bioactivity to its respective ligand-binding partner.

EPO = assay: SEC-HPLC aggregation/degradation of EPO after UV-B exposure; format: physicochemical, human; details: pH 6.90, 302 nm UV-B 24 hours
Procedure: as §1, with “protein. The SEC-HPLC conditions were as follows: a G3000 TOSOH SWXL column was used and the flowrate was set at 0.5 mL/min. […] FIG. 4 (EPO), FIG. 5 (anti-streptavidin), and FIG. 6 (Antibody A) show SEC-HPLC chromatograms of each proteins following exposure to 302 nm UV-B light for 24 hours. […] Each formulation was then exposed to 302 nm UV-B light for 24 hours. The protein formulation was then analyzed using SEC-HPLC.” for “protein.”

[2] = test system: anti-streptavidin mAb (IgG2); assay: SEC-HPLC aggregation of anti-streptavidin (IgG2) after UV-B exposure; format: physicochemical; details: 20 mM antioxidant; 1 mg/mL anti-streptavidin, 10 mM sodium acetate, 5% sorbitol, pH 5.00; 302 nm UV-B 24 hours
Procedure: (§3) The SEC-HPLC conditions were as follows: a G3000 TOSOH SWXL column was used and the flowrate was set at 0.5 mL/min. […] For both IgG1 and IgG2, the mobile phase was 80 mM sodium phosphate, 300 mM sodium perchlorate, 10% isopropanol, pH 7.2, and each sample was run for 45 minutes.
(§4) For FIG. 5, the anti-streptavidin formulation was prepared having the following characteristics: 1 mg/mL anti-streptavidin mAb (IgG2), 10 mM sodium acetate, 5% sorbitol, and pH 5.00. For FIG. 6, the Antibody A formulation was prepared having the following characteristics: 1 mg/mL Antibody A (IgG1), 10 mM sodium acetate, 9% sucrose, and pH 5.20.

Antibody A = assay: Discoloration (yellowing) of Antibody A formulations after UV-B exposure; format: physicochemical; details: UV-B light 24 hours
Description: Discoloration can be assessed visually or by measurement of absorbance at a specific wavelength.
Proteins may also become yellow in color following exposure to UV light.
Pyridoxine is another water soluble B-vitamin (B6) which was studied as a possible antioxidant for preventing protein aggregation caused by UV-B exposure.

Antibody A (IgG1) = assay: SEC-HPLC aggregation of Antibody A (IgG1) after UV-B exposure; format: physicochemical; details: 20 mM antioxidant; 1 mg/mL Antibody A, 10 mM sodium acetate, 9% sucrose, pH 5.20; 302 nm UV-B 24 hours
Procedure: as §3, §4

[3] = test system: Antibody A binding to protein A; assay: Binding of Antibody A to protein A (CM5 sensor chip) after UV-B exposure of the formulation; details: 20 mM antioxidant; pH 5.20 acetate buffer; 302 nm UV light over 24 hours
Procedure: (§2) For the examples below involving exposure to UVB radiation, each sample was exposed to UVB light (λ≈302 nm) for varying times, using a UVP 8W model UVLMS-38 lamp at 4° C. The formulations were then analyzed using size exclusion chromatography high pressure liquid chromatography (SEC-HPLC). Aggregation (measured via SEC-HPLC analysis) and binding (measured using CM5 gold sensor chips) were measured to determine the effect of the antioxidant on aggregation and bioactivity of the therapeutic protein. The binding activity of therapeutic protein to a ligand (e.g. to an antibody or binding partner, or, in cases where the therapeutic was an antibody, binding activity to the specific target antigen or to protein A) was determined as follows. […] The therapeutic protein-binding ligand of interest was injected until the desired immobilization level was achieved (above 5000 response units). Three different therapeutic protein-binding ligands were measured—Antibody A's target antigen, Protein A, and D11 (an antibody that binds to erythropoietin). […] The remaining activated groups were blocked with 1.0 M ethanolamine-HCl, pH 8.5. […] Various UV-stressed antibody formulations were also diluted in HBS-EP buffer (pH 7.4) to a concentration within the standard curve region, and injected to quantitate the loss of bioactivity to its respective ligand-binding partner.

[4] = test system: Antibody A binding to its target antigen; assay: Binding of Antibody A to its target antigen (CM5 sensor chip) after UV-B exposure of the formulation; details: 20 mM antioxidant; pH 5.20 acetate buffer; 302 nm UV light over 24 hours
Procedure: as §2

## COc1cc(/C=C/C(=O)O)ccc1O [ferulic acid]
[1]
  binding of Antibody B to protein A after UV-B exposure: prevented UV-B induced degradation
EPO; 0.1 mM antioxidant, 0.336 mg/mL EPO, 20 mM sodium phosphate
  amount of EPO dimer and aggregate caused by UV light (SEC-HPLC): able to reduce the amount of EPO dimer and aggregate
EPO; 0.1 mM antioxidant, 0.336 mg/mL EPO
  prevention of EPO degradation compared with 10 mM methionine (SEC-HPLC): able to prevent EPO degradation more effectively than 10 mM methionine
EPO; 20 mM antioxidant, 1 mg/mL EPO, 25 mM sodium phosphate, 125 mM sodium chloride
  amount of aggregate of EPO (SEC-HPLC): dramatically reduced
[2]
  amount of aggregate of anti-streptavidin (SEC-HPLC): dramatically reduced
Antibody A; 10 mM additive alone
  yellowing of Antibody A formulation: no appreciable yellowing
Antibody A; 10 mM antioxidant in the presence of 10 mM methionine
  yellowing of Antibody A formulation: no appreciable yellowing
Antibody A (IgG1)
  amount of aggregate of Antibody A (SEC-HPLC): dramatically reduced
[3]
  binding of Antibody A to protein A after UV exposure: preserved
[4]
  binding of Antibody A to its target antigen after UV exposure: preserved

— US12440567B2, “Aqueous antibody formulation stabilized by antioxidants for parenteral administration” (AMGEN INC., priority 2007, dated 2025)
